Reference: ChEMBL document CHEMBL1201862, “PubChem BioAssay data set” (2004)
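Five concentrations, 48 hours, 96-well plates. GI50 marks 50% less growth.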 Calls of active or inactive are those of the source. Rule as the data show it: active = GI50 up to about 1.1 µM and inactive = higher.

Tests used:
Experiment in all cases: NCI-60 cell line screen, 48 h
CCRF-CEM = test system: CCRF-CEM
EKVX = test system: EKVX
KM12 = test system: KM12
DLD-1 = test system: DLD-1
SF-268 = test system: SF-268
SN12C = test system: SN12C
HOP-62 = test system: HOP-62
SK-MEL-5 = test system: SK-MEL-5
OVCAR-8 = test system: OVCAR-8
COLO 205 = test system: COLO 205
RXF 393 = test system: RXF 393
SNB-75 = test system: SNB-75
U-251 = test system: U-251
HCT-116 = test system: HCT-116
SK-MEL-2 = test system: SK-MEL-2
LOX IMVI = test system: LOX IMVI
HOP-18 = test system: HOP-18
HCT-15 = test system: HCT-15
Malme-3M = test system: Malme-3M
NCI-H226 = test system: NCI-H226
HOP-92 = test system: HOP-92
KM-20L2 = test system: KM-20L2
NCI-H522 = test system: NCI-H522
TK-10 = test system: TK-10
RPMI-8226 = test system: RPMI-8226
K562 = test system: K562
CAKI-1 = test system: CAKI-1
A498 = test system: A498
RXF 631 = test system: RXF 631
MOLT-4 = test system: MOLT-4
UACC-257 = test system: UACC-257
A549 = test system: A549
SNB-78 = test system: SNB-78
SW-620 = test system: SW-620
NCI-H23 = test system: NCI-H23
NCI-H460 = test system: NCI-H460
SF-539 = test system: SF-539
SK-OV-3 = test system: SK-OV-3
LXFL 529 = test system: LXFL 529
SK-MEL-28 = test system: SK-MEL-28
IGROV-1 = test system: IGROV-1
HCC 2998 = test system: HCC 2998
HT-29 = test system: HT-29
DMS-273 = test system: DMS-273
M19-MEL = test system: M19-MEL
786-0 = test system: 786-0
OVCAR-5 = test system: OVCAR-5
OVCAR-3 = test system: OVCAR-3
OVCAR-4 = test system: OVCAR-4
ACHN = test system: ACHN
DMS-114 = test system: DMS-114
M14 = test system: M14
SNB-19 = test system: SNB-19
XF498 = test system: XF498
UACC-62 = test system: UACC-62
UO-31 = test system: UO-31
DU-145 = test system: DU-145
MDA-N = test system: MDA-N
T47D = test system: T47D
Hs-578T = test system: Hs-578T
MDA-MB-435 = test system: MDA-MB-435
MDA-MB-231 = test system: MDA-MB-231
SF-295 = test system: SF-295
HL-60 = test system: HL-60
SR = test system: SR
PC-3 = test system: PC-3
NCI/ADR-RES = test system: NCI/ADR-RES
MCF7 = test system: MCF7
BT-549 = test system: BT-549

Measured: GI50

Cc1ccc(NC(=O)C(=O)C(C(=O)c2ccc3ccccc3c2)C2OC(=O)c3ccccc32)c(C)c1 (centres undefined)
active: XF498 0.485 µM
14.3 µM: HCT-15
inactive: CCRF-CEM 8.55 µM | EKVX 19.1 µM | KM12 16.4 µM | DLD-1 12.6 µM | SF-268 3.68 µM | SN12C 15.5 µM | HOP-62 6.12 µM | SK-MEL-5 11.1 µM | OVCAR-8 7.67 µM | COLO 205 11.1 µM | RXF 393 3.24 µM | SNB-75 9.14 µM | U-251 3.64 µM | HCT-116 6.35 µM | SK-MEL-2 13 µM | LOX IMVI 10.6 µM | HOP-18 12.1 µM | Malme-3M 8.99 µM | NCI-H226 2.63 µM | HOP-92 7.03 µM | KM-20L2 24.4 µM | NCI-H522 12.8 µM | TK-10 20.3 µM | RPMI-8226 5.87 µM | K562 10.4 µM | CAKI-1 6.68 µM | A498 6.1 µM | RXF 631 4.68 µM | MOLT-4 3.31 µM | UACC-257 12.8 µM | A549 18 µM | SNB-78 8.73 µM | SW-620 5.71 µM | NCI-H23 8.13 µM | NCI-H460 5.57 µM | SF-539 4.84 µM | SK-OV-3 12.5 µM | LXFL 529 8.09 µM | SK-MEL-28 5.69 µM | IGROV-1 10.9 µM | HCC 2998 8.99 µM | HT-29 25.7 µM | DMS-273 > 10 µM | M19-MEL 6.38 µM | 786-0 6.93 µM | OVCAR-5 16.3 µM | OVCAR-3 9.38 µM | OVCAR-4 6.76 µM | ACHN 23.6 µM | DMS-114 7.6 µM | M14 14.7 µM | SNB-19 4.37 µM | UACC-62 4.54 µM | UO-31 13.1 µM

Nc1ccc(S(=O)(=O)Nc2ccc(Nc3c4ccccc4nc4ccccc34)cc2)cc1
active: CCRF-CEM < 0.01 µM | KM12 0.169 µM | DU-145 < 0.01 µM | DLD-1 1.06 µM | SF-268 0.0168 µM | SN12C < 0.01 µM | HOP-62 < 0.0119 µM | T47D 0.0637 µM | SK-MEL-5 0.0199 µM | OVCAR-8 0.041 µM | COLO 205 0.483 µM | RXF 393 0.316 µM | SNB-75 0.0158 µM | U-251 0.0154 µM | HCT-116 0.165 µM | SK-MEL-2 0.769 µM | LOX IMVI 0.015 µM | HOP-18 0.43 µM | Malme-3M 0.0675 µM | NCI-H226 0.0101 µM | HOP-92 0.5 µM | KM-20L2 0.215 µM | NCI-H522 0.0695 µM | TK-10 0.566 µM | RPMI-8226 0.0164 µM | K562 0.0716 µM | CAKI-1 < 0.0126 µM | A498 0.0538 µM | RXF 631 0.284 µM | MOLT-4 < 0.01 µM | A549 < 0.01 µM | SF-295 0.0127 µM | HL-60 < 0.0102 µM | SW-620 0.0485 µM | SR < 0.01 µM | PC-3 0.0555 µM | NCI-H23 0.0185 µM | NCI-H460 0.0347 µM | SF-539 0.0166 µM | SK-OV-3 0.0174 µM | SK-MEL-28 0.738 µM | IGROV-1 0.769 µM | HCC 2998 0.164 µM | HT-29 0.198 µM | DMS-273 < 0.01 µM | MCF7 < 0.01 µM | M19-MEL 0.115 µM | 786-0 0.0413 µM | BT-549 0.0906 µM | OVCAR-5 0.164 µM | OVCAR-3 0.245 µM | ACHN < 0.0114 µM | DMS-114 < 0.0102 µM | M14 0.0298 µM | SNB-19 0.0182 µM | UACC-62 0.0213 µM | UO-31 0.195 µM
0.579 µM: HCT-15
inactive: EKVX 1.82 µM | MDA-N 10.2 µM | Hs-578T 1.86 µM | MDA-MB-435 9.33 µM | UACC-257 1.87 µM | SNB-78 3.78 µM | MDA-MB-231 2.08 µM | NCI/ADR-RES 4.83 µM | LXFL 529 3.91 µM | OVCAR-4 3.66 µM | XF498 3.61 µM

C=C1C(=O)OC2/C=C(CO)/C=C\C3OC3(C)CC(OC(=O)/C(C)=C/COC(C)=O)C12 (centres undefined)
inactive: CCRF-CEM 1.26 µM | EKVX 3.78 µM | KM12 5.28 µM | DU-145 16.6 µM | SF-268 4.04 µM | MDA-N 1.75 µM | SN12C 2.21 µM | HOP-62 20 µM | T47D 2.65 µM | SK-MEL-5 5 µM | OVCAR-8 2.47 µM | COLO 205 1.6 µM | RXF 393 1.85 µM | SNB-75 7.8 µM | U-251 3.95 µM | HCT-116 1.5 µM | SK-MEL-2 3.75 µM | Hs-578T 3.08 µM | LOX IMVI 1.34 µM | HOP-18 9.38 µM | Malme-3M 1.77 µM | NCI-H226 12.2 µM | HOP-92 2.62 µM | KM-20L2 4.7 µM | TK-10 5.16 µM | K562 3.3 µM | CAKI-1 2.76 µM | A498 7.43 µM | MDA-MB-435 2 µM | RXF 631 2.74 µM | UACC-257 2.37 µM | A549 11.9 µM | SNB-78 4.08 µM | MDA-MB-231 2.66 µM | SF-295 14.8 µM | SW-620 1.37 µM | PC-3 10 µM | NCI-H23 3.08 µM | NCI-H460 5.69 µM | SF-539 1.96 µM | SK-OV-3 17.8 µM | NCI/ADR-RES 3.97 µM | LXFL 529 1.58 µM | SK-MEL-28 1.73 µM | IGROV-1 7.8 µM | HCC 2998 13.4 µM | HT-29 2.52 µM | DMS-273 1.97 µM | MCF7 3.15 µM | M19-MEL 1.84 µM | 786-0 1.97 µM | BT-549 1.57 µM | OVCAR-5 13.9 µM | OVCAR-3 2.46 µM | OVCAR-4 3.99 µM | ACHN 3.14 µM | DMS-114 4.35 µM | M14 2.3 µM | SNB-19 12.5 µM | XF498 2.47 µM | UACC-62 2.2 µM | UO-31 6.11 µM
1.87 µM: HCT-15
active: DLD-1 0.773 µM | NCI-H522 0.692 µM | RPMI-8226 0.716 µM | MOLT-4 0.802 µM | HL-60 0.34 µM | SR 0.56 µM
